Six compounds from ChEMBL document CHEMBL1833862, “Synthesis and biological evaluation of novel 2-arylamino-3-(arylsulfonyl)quinoxalines as PI3Kα inhibitors” (Eur J Med Chem, 2011) can be followed below.

pIC50: −log10 of the molar value. Activity calls are given as the source filed them. The rule behind the calls is not given here.

Assay [1] addresses T1, Phosphatidylinositol 4,5-bisphosphate 3-kinase catalytic subunit alpha isoform (Homo sapiens, UniProt P42336). Put plainly: Inhibition of human recombinant PI3Kalpha assessed as production of 3,4,5-inositoltriphosphate after 3 hrs by fluorescence polarization assay.
In assay [2] the test system is A549. In words: Cytotoxicity against human A549 cells after 72 hrs by MTT assay. The assay is classed as functional, cell-based. The following applies: A549, 72 h.
Assay [3] concerns KB. In words: Cytotoxicity against human KB cells after 72 hrs by MTT assay. The format is functional, cell-based.
Assay [4] deals with HCT-116. Put plainly: cells. The following applies: Homo sapiens, HCT-116, 72 h.
Assay [5] relates to PC-3. Put plainly: cells. The following applies: Homo sapiens, PC-3, 72 h.
Description: Cytotoxicity against human PC3 cells after 72 hrs by MTT assay
Assay [6] relates to HL-60. Put plainly: Cytotoxicity against human HL60 cells after 72 hrs by MTT assay. The format is functional, cell-based. The following applies: HL-60, 72 h.
Assay [7] addresses T1, Phosphatidylinositol 4,5-bisphosphate 3-kinase catalytic subunit alpha isoform. Put plainly: Inhibition of PI3K in human PC3 cells assessed as suppression of Akt Ser473 phosphorylation at 10 uM after 3 hrs by SDS-PAGE and Western blot analysis. The assay is classed as cell-based. The following applies: PC-3.

T1 sequence (P42336 whole entry, canonical isoform): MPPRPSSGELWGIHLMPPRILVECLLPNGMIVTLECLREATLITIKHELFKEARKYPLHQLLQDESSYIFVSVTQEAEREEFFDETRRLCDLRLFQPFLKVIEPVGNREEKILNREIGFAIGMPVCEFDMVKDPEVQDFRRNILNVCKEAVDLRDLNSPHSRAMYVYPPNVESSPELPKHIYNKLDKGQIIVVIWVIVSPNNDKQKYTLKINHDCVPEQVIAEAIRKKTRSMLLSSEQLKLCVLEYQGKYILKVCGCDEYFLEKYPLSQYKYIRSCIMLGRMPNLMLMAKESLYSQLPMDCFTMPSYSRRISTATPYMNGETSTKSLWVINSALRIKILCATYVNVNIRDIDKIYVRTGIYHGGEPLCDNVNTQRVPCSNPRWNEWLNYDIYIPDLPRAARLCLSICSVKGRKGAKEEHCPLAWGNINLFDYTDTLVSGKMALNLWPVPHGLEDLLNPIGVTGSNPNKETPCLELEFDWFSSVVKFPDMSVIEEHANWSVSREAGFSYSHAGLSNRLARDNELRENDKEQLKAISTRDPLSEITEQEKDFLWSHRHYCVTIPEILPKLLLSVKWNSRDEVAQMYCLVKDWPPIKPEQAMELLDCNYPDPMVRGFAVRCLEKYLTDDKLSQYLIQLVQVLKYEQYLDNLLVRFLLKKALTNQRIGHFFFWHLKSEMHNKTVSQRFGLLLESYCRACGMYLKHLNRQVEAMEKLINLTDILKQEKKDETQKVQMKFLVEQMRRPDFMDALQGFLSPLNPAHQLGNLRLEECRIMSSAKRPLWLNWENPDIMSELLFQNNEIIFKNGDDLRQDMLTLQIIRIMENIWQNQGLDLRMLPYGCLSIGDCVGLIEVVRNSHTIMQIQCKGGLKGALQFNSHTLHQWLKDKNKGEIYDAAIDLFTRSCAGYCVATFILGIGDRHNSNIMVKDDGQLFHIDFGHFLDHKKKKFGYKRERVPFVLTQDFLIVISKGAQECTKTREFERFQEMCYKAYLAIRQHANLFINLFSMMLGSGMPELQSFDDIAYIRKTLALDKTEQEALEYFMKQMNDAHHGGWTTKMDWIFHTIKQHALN

Take `COc1ccc(S(=O)(=O)c2nc3ccccc3nc2Nc2cccc(O)c2)cc1`: the pIC50 in assay [1] is under 6.00; in assay [2] it was 5.21; in assay [3] it was 5.08; in assay [4] it was 6.09; in assay [5], 5.79; in assay [6], 6.85.
With `O=S(=O)(c1ccc(Br)cc1)c1nc2ccccc2nc1Nc1cccc(O)c1`, the pIC50 in assay [1] was 6.33; in assay [2] it was 5.10; in assay [3], 5.08; in assay [4] it was 6.27; in assay [5] it was 5.77; in assay [6], 6.70.
As to `O=S(=O)(c1ccccc1)c1nc2ccccc2nc1Nc1cccc(O)c1`, the pIC50 in assay [1] is under 6.00; in assay [2], 5.24; in assay [3], 5.07; in assay [4], 5.94; in assay [5], 5.77; in assay [6], 6.66.
Take `COc1cc(Nc2nc3ccccc3nc2S(=O)(=O)c2ccc(C)cc2)cc(OC)c1`: the pIC50 was 5.09 in assay [2], under 4.30 in assay [4], 5.53 in assay [5] and 7.70 in assay [6]. For the same compound, the inhibition entry in assay [7] is “Active”.
For the compound `Nc1ccc(Nc2nc3ccccc3nc2S(=O)(=O)c2ccc(Br)cc2)cc1`, the pIC50 in assay [2] was 5.99; in assay [3], 5.39; in assay [4] it was 5.86; in assay [5], 5.63; in assay [6] it was 6.14. Further, the inhibition entry in assay [7] was “Active”.
Consider `Cc1ccc(S(=O)(=O)c2nc3ccccc3nc2Nc2cccc(O)c2)cc1`, for which the negative-log IC50 (pIC50) in assay [1] is under 6.00; in assay [2] it was 5.22; in assay [3], 5.27; in assay [4], 5.42; in assay [5], 5.77; in assay [6], 6.40.
